The source of these data is US10195195B2, “Selective histamine H4 receptor antagonists for the treatment of vestibular disorders” (INSERM (Institut National de la Sante de la Recherche …, priority 2008, dated 2019).

In general, IC50 refers to the concentration that gives 50% inhibition. Usually inhibition stands for the change of the read-out against control, counted positive when it falls. A word on the Kd: it is the free concentration of one partner at which half of the binding sites on the other are occupied at equilibrium, for simple one-to-one binding.

Experiment [1] relates to vestibular ganglion neurons. Description: Patch-clamp (current-clamp) recording of depolarization-induced firing volley and membrane potential in cultured vestibular ganglion neurons. Particulars: for IC50: cultured rat vestibular neurons; for inhibition at 0.1 µM: 100 nM (0.1 μM); for variation of membrane potentials (qualitative): FIG. 4, high concentrations; for reversibility of the firing inhibition during rinse with control medium: perfusion of control medium after drug; for depolarization of the neurons: 5 mM. Format: cell-based, Wistar rats. The procedure:
Cell culture: Vestibular ganglion neurons were explanted aseptically from 2 to 6 days-old Wistar rats (Centre d'Elevage Janvier, Le Genest-Saint-Isle, France). All procedures were carried out in accordance to the French/European Communities Council Directive 86/609/EEC. The brainstem was hemi-sectioned and the eighth nerve was followed up to the level of the otocyst and cut just rostral to it.
The vestibular ganglia were excised, placed in Leibovitz medium (L15, Invitrogen, Cergy Pontoise, France), and dissociated by enzymatically (collagenase 0.75 mg/ml, dispase 1 mg/ml and dnase 0.75 mg/ml, 15 min at 25° C.). Enzymes were washed with Tyrode solution without Ca^2+ and Mg^2+, and the ganglion neurons were gently dissociated in culture medium with a pipette. The neurons were plated onto culture dishes previously coated with 5 μg/ml poly-L-ornithine, 10 μg/ml laminin and subsequently filled with 0.5 ml of a 1:1 mixture of Dulbecco's modified eagle medium and Ham's F-12 medium (Invitrogen) supplemented with 2% N2 nutrient glucose (5 g/l), glutamine (1.5 mM), sodium bicarbonate (1.1 g/l), HEPES buffer (15 mM, pH 7.4), AraC 2 μM, brain-derived neurotrophic factor 10 μg/ml and 1% penicillin/streptomycin. The low density cultures were then maintained at 37° C. in 5% CO2 for 7 to 8 days prior patch-clamp experiments.
Patch-clamp recordings: Whole-cell (current-clamp configuration) recording of responses were obtained using an Axopatch 200B amplifier (Axon Instruments; Molecular Devices Corp., Sunnyvale, Calif., USA). The extracellular solution contained (in mM): NaCl 135, HEPES 10, glucose 10, MgCl2 1, KCl 5, and CaCl2 4, pH 7.35 (with NaOH). Recording pipettes (2-3 MΩ) were drawn from microhematocrit tubes (Modulohm I/S Herlev, Denmark) and filled with the following solution (in mM): KCl 135, HEPES 10,glucose 10, NaCl5, EGTA 5, Mg-ATP3, GTP-Na 1, pH 7.35 (with KOH). The osmolarity of all solutions was set to 300 mOsm/I^−1. Experimental parameters and data acquisition were controlled with a PC computer and a Tecmar Labmaster analogue interface (Axon instruments, CA). Voltage transients were recorded from neurons presenting resting potentials lying between −45 and −65 mV. Trains of action potentials (APs) were elicited using 1 s, 200 pA depolarizing pulses applied every 6.5 s. Current signals were filtered at 10 KHz, digitized and stored using pCLAMP software (v 10.2, Axon instruments).
Drug application : The control and test solutions were applied using a multiple capillary perfusion system (flow rate 500 μl/min). After each application of the tested drug, the cells were washed with control buffer.
Data analysis and statistical methods : The results are expressed as means±S.E.M. The number of sample size (n) given is the number of neurons tested. Variations of the membrane potential and the number of APs were analysed using pCLAMP software (v10.2, Axon instruments). Drug concentration-effect relationships were fitted with a Hill equation of the form I(x)=A*xn/(IC50n+xn).
For orientation: In patch-clamp work, channel activity is measured electrically.

A further experiment addresses T1, human H3 receptor (Homo sapiens, UniProt Q9Y5N1).
T1 construct: expressed in transfected cells; host or cells: SK-N-MC or HEK293 T
Particulars: radioligand, transfected cell membranes; cited from earlier work.

Experiment [2] relates to peripheral vestibular receptors isolated from axolotl. Particulars: cited from earlier work.
Setting [3] is: Neuron, dose-response fitted with Hill equation, read-out: IC50 of inhibition of the firing volley induced by standard depolarization.
[4] abbreviates: Rattus norvegicus, Neuron, tonic discharge.

Entries after “also recorded” stand apart in the source; their conditions may differ. Where two headings read alike, the source gives them in different places.

T1 sequence (Q9Y5N1 whole entry): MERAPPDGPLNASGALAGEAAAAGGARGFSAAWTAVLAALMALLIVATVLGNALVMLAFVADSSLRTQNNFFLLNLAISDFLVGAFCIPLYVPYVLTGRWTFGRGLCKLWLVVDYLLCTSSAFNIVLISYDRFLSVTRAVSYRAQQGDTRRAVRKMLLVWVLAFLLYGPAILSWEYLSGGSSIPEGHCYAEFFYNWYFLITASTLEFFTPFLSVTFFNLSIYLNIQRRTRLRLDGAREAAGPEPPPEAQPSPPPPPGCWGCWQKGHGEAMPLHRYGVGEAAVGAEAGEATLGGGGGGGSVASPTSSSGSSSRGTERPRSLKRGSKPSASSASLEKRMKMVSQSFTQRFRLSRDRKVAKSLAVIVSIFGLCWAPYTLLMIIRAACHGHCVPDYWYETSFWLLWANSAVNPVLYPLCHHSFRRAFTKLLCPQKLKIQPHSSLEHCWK

Take `CN1CCN(C(=O)c2cc3cc(Cl)ccc3[nH]2)CC1` [JNJ 7777120, 1-[(5-chloro-1H-indol-2-yl)carbonyl]-4-methylpiperazine]: the IC50 in experiment [1] (setting [3]) came to 10 µM. In experiment [1] (setting [4]), the inhibition at 0.1 µM was found to be 3%, the inhibition at 1 µM was 29% and the inhibition at 10 µM stood at 41%. Moreover, the membrane depolarisation result in experiment [1] (high concentration application (1 mM)) was “did not induce membrane depolarisation”.
Consider `CN1CCN(C(=O)c2nc3cc(Cl)ccc3[nH]2)CC1` [VUF 6002, 1-[(5-chloro-1H-benzimidazol-2-yl)carbonyl]-4-methylpiperazine], for which, in experiment [1], the “action potentials intrinsic properties (spike amplitude, time to peak, rise and decay time constants)” value was “not affected”; the “variation of membrane potentials (qualitative)” value (from here on “variation of membrane potentials”) is given as “did not induce membrane variations”; the “reversibility of the firing inhibition during rinse with control medium” value is “reversed during rinse with control medium; also recorded: totally reversed”. Moreover, the membrane hyperpolarization result in experiment [1] (100 μM) is “about −3 mV”. Moreover, in experiment [1] (100 μM, tonic discharge), the “inhibition of the firing” value is recorded as 90%. Moreover, the “effect on firing, phasic discharge pattern” value in experiment [1] (1 mM, neurons with phasic discharge, n=6) was “completely abolished the firing”. Also, the 50% inhibitory concentration (IC50) in experiment [1] (setting [3]) was 5.8 µM. Also, in experiment [1] (setting [4]), at 0.1 µM the inhibition was 20%, the inhibition at 1 µM was 37% and the inhibition at 10 µM amounted to 55%. In experiment [1] (Rattus norvegicus, Neuron, 100 μM, tonic discharge), this compound yielded an inhibition at 100 µM of 91%. Also, the “concentration of maximum inhibition of the firing” value in experiment [1] (dose-response between 1 nM and 1 mM) was “around 100 μM”.
In the case of `CNCCc1cnc[nH]1` [[^3H]N-a-methyl histamine], the Kd on human H3 receptor is 0.001 µM.
Regarding `CNCCc1ccccn1.Cl.Cl` [betahistine, betahistine dihydrochloride], the “concentration of maximum effect on afferent discharge” value in experiment [2] is given as “around 10 mM”. In addition, the IC50 in experiment [2] (read-out: IC50 of inhibition of the afferent discharge) is 800 µM; in experiment [1] (dose-response relationship, read-out: IC50 of inhibition of the discharge volley), 2200 µM. In experiment [1] (2 mM application), the “effect on membrane potential” value is recorded as “not affected”. Further, the “depolarization of the neurons” value in experiment [1] (dihydrochloride) is recorded as “about 15 mV”; in experiment [1] (listed as BH, dihydrochloride) it was 14.3±4.7 mV. In addition, the “variation of membrane potentials” value is “pronounced depolarisation of the neurons” in experiment [1] (dihydrochloride) and “strong depolarisations at high concentrations” in experiment [1] (listed as betahistidine, dihydrochloride). Besides, the “reversibility of the firing inhibition during rinse with control medium” value in experiment [1] (dihydrochloride) is “rapidly reversed during rinse with control medium”; in experiment [1] (listed as BH, dihydrochloride), “rapidly abolished”. For the same compound, the “concentration of maximum inhibition of the discharge volley” value in experiment [1] (standard depolarization stimulation) is recorded as “around 10 mM”.
Turning to `O=C(O)/C=C\C(=O)O.S=C(NC1CCCCC1)N1CCC(c2c[nH]cn2)CC1` [thioperamide, N-cyclohexyl-4-(1H-imidazol-4-yl)-1-piperidinecarbothioamide maleate], the “membrane depolarisation at low concentration” value in experiment [1] (0.01 to 10 μM) is “without depolarizing the neurons”. The “variation of membrane potentials” value in experiment [1] (maleate) is “strong depolarisations at high concentrations; also recorded: strong membrane depolarisations; also recorded: pronounced depolarisation of the neurons”. The IC50 in experiment [1] (setting [3]) was 100 µM. In experiment [1] (setting [4]), this compound returned an inhibition at 0.1 µM of 10% and an inhibition at 10 µM of 24%. Further, the inhibition at 500 µM in experiment [1] (Rattus norvegicus, Neuron, 500 μM, read-out: inhibition of the firing (blocked activity)) came to 87%. The “reversibility of the firing inhibition during rinse with control medium” value in experiment [1] is recorded as “only slightly reversible”.
